Assay results from patent publication US9572760B2, “Uses of compounds and mixtures from Antrodia cinnamomea mycelia” (Simpson Biotech Co., Ltd., priority 2013, dated 2017).

Experiments:
[1] = system: HSC; test: HSC proliferation by BrdU assay; format: cell-based; conditions: 24-80 μM; for HSC proliferation (BrdU assay): 24 h, 48 h and 72 h
Protocol: The Cell Proliferation ELISA, BrdU kit was designed to quantitate cell proliferation bases on the measurement of BrdU incorporation during DNA synthesis in proliferation cells. Briefly, cells (1×10^4 cells/well) were seeded in 100 μl medium in a 96-well plate (Nunc, Denmark) and cultured for 24 h to allow the cells to attach and then treated with three different concentrations ([…]) of either Compound A, B, C and D for 24 h, 48 h and 72 h and the plates were incubated in 37° C. After incubation, the culture medium was labeled with 10 μl/well BrdU (Roche Diagnostic Inc.), and the cells were reincubated for addition 16 h at 37° C. Labeling medium was removed using 10 min centrifuge at 200×g and blow dried. Cells were fixed using 200 μl FixDenat solution and incubated for 30 min at room temperature. Removing the FixDenat solution, 100 μl of anti-BrdU-POD was added and incubated for 90 min at room temperature. After the incubation period, microplates were washed three times with PBS buffer and 100 μl substrate solution was added and incubated for 30 min. Stop solution was added (25 μl of 1 M H2SO4) and absorbance of the samples was measured using ELISA reader at 450 nm.

[2] = system: pre-fibrotic genes including α-SMA, TIMP, Collagen type I and TGF-β1; test: Real-time RT-PCR of pre-fibrotic gene expression in liver of cirrhotic animals; format: in vivo, Wistar rats; conditions: compound B 7 mg/kg, compound C 14 mg/kg, ACM 320 mg/kg
Protocol: Sample tissues of rat livers were measured about 0.5×0.5 cm in area. Each of tissue was homogenized in 1 mL of TRIzol buffer (Invitrogen, Carlsbad, Calif., USA) with a motorized pestle, and then mixed with 0.5 mL chloroform/isoamyl alcohol (24:1), and was centrifuged at 12,000×g for 10 min at 4° C. The supernatant was transferred to a fresh tube, and isopropanol was added, mix well and stored at −80° C. overnight. The reaction mixture was centrifuged at 12,000×g for 30 min at 4° C. to produce a rude RNA pallet, the pellet was washed with 70% ethanol and air-dried. The concentrations of total RNA were measured by absorbance at 260 nm using a NanoDrop ND-1000 (NanoDrop, USA). Reverse transcription reaction was performed using a commercially available set of High Capacity RNA-to-cDNA Kit (Applied Biosystems, USA). cDNA was prepared from 2 μg of total RNA per 20 μl reaction, according to the manufacturer's instructions—37° C. for 60 minutes, 95° C. for 5 minutes, and hold at 4° C. The resulting cDNA was to a final concentration of 100 ng/μl and constituted a matrix in further experiments. Amplification and detection the gene expression by real-time PCR were performed using StepOne plus Real-time PCR System (Applied Biosystems, USA). Samples were assayed in a 10 μl reaction mixture containing 2 μl of template DNA, 5 μl of 2× TaqMan PCR Master Mix (Applied Biosystems, Life Technologies, Foster City, Calif., USA), 0.5 μl of 20× assay mix containing probe, forward and reverse primer (Applied Biosystems, Life Technologies, Foster City, Calif., USA), whereby qPCR targets with the following information were used: (a) Rat α-SMA, Assay ID Rn01759928_g1, (b) Rat TIMP, Assay ID Rn00587558_m1, (c) Rat TGF-β1, Assay ID Rn00572010_m1, (d) Rat Collagen I, Assay ID Rn 01463838_m1, (e) Rat CuZnSOD, Assay ID Rn00566938_m1, (f) Rat MnSOD, Assay ID Rn00690587_g1, (g) Rat Catalase, Assay ID Rn00560930_m1, (h) Rat Glutathione peroxidase, Assay ID Rn00577994_g1, (i) Rat NADPH oxidase, Assay ID Rn00585380_m1 and (j) Rat GAPDH, Assay ID Rn1462662_g1. To control variation in mRNA concentration, all results were normalized to the housekeeping gene, GAPDH. Relative quantitation was performed using the comparative ΔΔCt method according to the manufacture's instructions. The cycling conditions used were as follows: 50° C. for 2 min, 95° C. for 10 min followed by 40 cycles of 95° C. for 15 s and 60° C. for 1 min each.

[3] = system: hypertrophic scarring; test: Rabbit ear model of hypertrophic scarring: scar and epidermal thickness, histology; format: in vivo, New Zealand white rabbits; conditions: for mean epidermal thickness (ETI) / mean scar thickness (SEI): 1% w/v applied to wounds every day for 14 days; for mean epidermal thickness (ETI): control 5.08±0.44; for mean scar thickness (SEI): day 14, control 3.71±0.31; for histology: dermis layer of scars: treated for 14 day, 1% w/v
Protocol: (§1) The rabbit ear model of hypertrophic scarring was established. In brief, 12 New Zealand white rabbits, weighing 2.5 to 3.0 kg, were prepared for wounding under sterile conditions. Four 1 cm full thickness circular wounds were created down to the cartilage on the ventral side of each ear using a 1 cm punch biopsy. The perichondrial membrane was then dissected off the cartilage using a surgical blade. The test agents including compound B, C and ACM ethanol extract were applied to the wounds of the experimental group ([…] to each wound) every day in concentrations of 1% w/v for 14 days, while the control group received equal amounts of 1% w/v saline.

[4] = system: collagen I and III; test: Collagen I and collagen III quantification (ELISA) in rabbit ear scar; format: in vivo, New Zealand white rabbits
Protocol: as §1
The quantification of collagen I and III used an ELISA Kit (R & D Systems Inc., Minneapolis, Minn., USA) according to the operation manual.

Structure (SMILES)	HSC proliferation (BrdU assay) [1]	Collagen type I gene expression in liver [2]	TGF-β1 gene expression in liver [2]	TIMP gene expression in liver [2]	α-SMA gene expression in liver [2]	mean epidermal thickness (ETI) [3]	mean scar thickness (SEI) [3]	histology: dermis layer of scars [3]	collagen III density ([4]; day 7, 1% w/v topical)	collagen I density ([4]; day 14, 1% w/v topical)	collagen III density ([4]; day 14, 1% w/v topical)	potency of effect on HSC proliferation and apoptosis compared to other compounds [1]
CC(C)=CCOc1ccc(C2=C(CC(C)C)C(=O)N(O)C2=O)cc1 [Compound C, 3-isobutyl-4-[4-(3-methyl-2-butenyloxy)phenyl]-1H-pyrrol-1-ol-2,5-dione]	markedly proliferation inhibition	reduced significantly	reduced significantly	reduced significantly	reduced significantly	3.10±0.14	2.10±0.24	not significantly thickened	insignificantly decreased	significantly decreased	significantly reduced	–
CC(C)=CCOc1ccc(C2=C(CC(C)C)C(=O)NC2=O)cc1 [Compound B, 3-isobutyl-4-[4-(3-methyl-2-butenyloxy)phenyl]-1H-pyrrol-2,5-dione]	markedly proliferation inhibition	reduced significantly	reduced significantly	reduced significantly	reduced significantly	2.23±0.31	1.93±0.51	not significantly thickened	insignificantly decreased	significantly decreased	significantly reduced	most potent effect
